Results from article PMC7496508, “Modular Medical Imaging Agents Based on Azide–Alkyne Huisgen Cycloadditions: Synthesis and Pre‐Clinical Evaluation of ^18F‐Labeled PSMA‐Tracers for Prostate Cancer Imaging” (Chemistry (Weinheim an Der Bergstrasse, Germany), 2020).
Where “and” joins values, the source holds several entries; their conditions need not be identical. Identical values can stand only once.

Experiments:
Format in all cases: in vivo, Balb/c nude mice
LNCaP (PSMA+) xenografts [1] = assay: ex vivo organ distribution, LNCaP xenograft mice
Experimental: (§1) All groups were evaluated by visual assessment of the PET image and the percentage injected dose per gram (%ID g^−1).
(§2) The animal experiments were all performed according to the ethical guidelines and approved by the local animal welfare committee of the University of Groningen (IvD number 15166-06-001. All animals were caged separately in individually ventilated cages.
(§3) 7-12 week old immune deficient Balb/c nude mice were inoculated with 200 µL of a 1:1 suspension of medium containing approximately 4 x10^6 LNCaP cells (PSMA positive cells) or 5 x 10^6 PC3 cells (PSMA-negative cells) in RPMI-1640, and Matrigel Basement Membrane Matrix High concentration. The cells were subcutaneously inoculated on the right shoulder.
(§4) After 3 to 5 weeks for LNCaP-xenografts, 2-3 weeks for PC3-xenografts or when a tumor size of 1cm3 was reached, the animals were transported to the PET imaging facility. For the […]
(§5) prepared and 100 µL were injected via penile vein injection 30 min prior to the tracer injection. Animals were anesthetized at 5 % isoflurane and maintained under 2 % isoflurane enriched with O2. The dynamic PET scan was started within 5 min after tracer injection with an acquisition time of 90 min. The static scan was performed 60 min after tracer injection with an acquisition time of 30 min.
(§6) 7.2. Organ distribution and Metabolite analysis.
(§7) After sacrificing the animals, the organs were dissected and measured in a γ-counter. The obtained CPM’s were normalized to %ID/g (Table shown in main text). […]
(§8) In order to check for the significant differences, we also checked for the Cohen’s d, a measurement to determine the effect size. It is calculated on the following formula:
(§9) Cohen′sD = Mean1− Mean2 . […]

PC3 (PSMA-) xenografts [2] = assay: ex vivo organ distribution, PC3 xenograft mice; details: dissected after PET scan
Experimental: as §1, §2, §3
After 3 to 5 weeks for LNCaP-xenografts, 2-3 weeks for PC3-xenografts or when a tumor size of 1cm3 was reached, the animals were transported to the PET imaging facility. […]
Animals were anesthetized at 5 % isoflurane and maintained under 2 % isoflurane enriched with O2. The dynamic PET scan was started within 5 min after tracer injection with an acquisition time of 90 min. The static scan was performed 60 min after tracer injection with an acquisition time of 30 min.
as §6, §7, §8, §9

LNCaP (PSMA+) xenografts [3] = assay: PET image quantification of organ distribution (SUVmeanBW), LNCaP xenograft mice
Experimental: (§10) The in vivo imaging potential of [^18F]PSMA‐MIC01 was evaluated using a murine animal model (see Supporting Information for experimental details).65 This was performed in a procedure that involved the study of the tumor uptake, binding specificity and comparison to [^68Ga]PSMA‐11. Tumor uptake of [^18F]PSMA‐MIC01 was assessed by performing a 90 min dynamic PET scan.
as §2, §3, §4
as §5, with “30 min. […]” for “30 min.”
as §8, §9

PC3 (PSMA-) xenografts [4] = assay: PET image quantification of organ distribution (SUVmeanBW), PC3 xenograft mice
Experimental: as §10, §2, §3, §4
as §5, with “30 min. […]” for “30 min.”
as §8, §9

[5] = metabolite analysis of plasma and urine by TLC; details: PC3- or LNCaP-xenograft animals
Excerpt: as §6
After sacrificing the animals, the organs were dissected and measured in a γ-counter. The obtained CPM’s were normalized to %ID/g (Table shown in main text). For the metabolite analysis, urine and plasma samples were pipetted onto a TLC plate and run in a solution of 10 % MeCN in H2O and read out in an Amersham Typhoon (GE).Additionally to […]
metabolite analysis of two article, the image quantification based on the standardized different animals bearing a uptake value (SUV ) was performed. The obtained data PC3- or a LNCaP-xenograft. meanBW While in Plasma, no are represented in the following Table S6. Here, we show the metabolite were formed, the […]
results obtained by image quantification of the 4 different conclusive. groups. Comparison of tumor uptake in PSMA-expressing
LNCaP xenografts of (1) [68Ga]PSMA-11 and (2) [18F]PSMA-MIC01 (the same animals). (3) the PSMA-negative PC3 xenograft. (4) Confirmation of binding specificity of radiotracer [18F]PSMA-MIC01, by blocking PSMA in LNCaP-xenografts prior to radiotracer injection] using the potent PSMA-inhibitor 2-PMPA.
as §8, §9
(1 picture or pasted object on this page, not shown here)

[6] = LNCaP (PSMA+) xenograft blocked with 2-PMPA 30 min prior to tracer
[7] = LNCaP (PSMA+) xenograft, dissected after PET scan
[8] = LNCaP-blocked (PSMA+), 2-PMPA prior to tracer

ex vivo uptake bone (LNCaP (PSMA+) xenografts [1]; [6]): 0.3±0.1 %ID g^−1
ex vivo uptake brain (LNCaP (PSMA+) xenografts [1]; [6]): 0.1±0.0 %ID g^−1
ex vivo uptake heart (LNCaP (PSMA+) xenografts [1]; [6]): 0.7±0.5 %ID g^−1
ex vivo uptake kidney (LNCaP (PSMA+) xenografts [1]; [6]): 28.5±20.7 %ID g^−1
ex vivo uptake large intestine (LNCaP (PSMA+) xenografts [1]; [6]): 0.9±0.3 %ID g^−1
ex vivo uptake liver (LNCaP (PSMA+) xenografts [1]; [6]): 5.7±1.4 %ID g^−1
ex vivo uptake lungs (LNCaP (PSMA+) xenografts [1]; [6]): 1.1±0.3 %ID g^−1
ex vivo uptake muscles (LNCaP (PSMA+) xenografts [1]; [6]): 0.3±0.1 %ID g^−1
ex vivo uptake pancreas (LNCaP (PSMA+) xenografts [1]; [6]): 0.5±0.2 %ID g^−1
ex vivo uptake plasma (LNCaP (PSMA+) xenografts [1]; [6]): 3.8±1.3 %ID g^−1
ex vivo uptake salivary glands (LNCaP (PSMA+) xenografts [1]; [6]): 1.0±0.8 %ID g^−1
ex vivo uptake small intestine (LNCaP (PSMA+) xenografts [1]; [6]): 1.2±1.5 %ID g^−1
ex vivo uptake spleen (LNCaP (PSMA+) xenografts [1]; [6]): 1.0±0.2 %ID g^−1
ex vivo uptake stomach (LNCaP (PSMA+) xenografts [1]; [6]): 7.3±16.4 %ID g^−1
ex vivo uptake tumor (LNCaP (PSMA+) xenografts [1]; [6]): 2.8±0.8 %ID g^−1
ex vivo uptake urine (LNCaP (PSMA+) xenografts [1]; [6]): 644±627 %ID g^−1
ex vivo uptake whole blood (LNCaP (PSMA+) xenografts [1]; [6]): 1.8±0.6 %ID g^−1
ex vivo uptake bone (LNCaP (PSMA+) xenografts [1]; [7]): 0.2±0.1 %ID g^−1
ex vivo uptake brain (LNCaP (PSMA+) xenografts [1]; [7]): 0.1±0.0 %ID g^−1
ex vivo uptake heart (LNCaP (PSMA+) xenografts [1]; [7]): 0.6±0.4 %ID g^−1
ex vivo uptake kidney (LNCaP (PSMA+) xenografts [1]; [7]): 42.0±9.0 %ID g^−1
ex vivo uptake large intestine (LNCaP (PSMA+) xenografts [1]; [7]): 1.4±1.5 %ID g^−1
ex vivo uptake liver (LNCaP (PSMA+) xenografts [1]; [7]): 5.6±1.3 %ID g^−1
ex vivo uptake lungs (LNCaP (PSMA+) xenografts [1]; [7]): 1.3±0.5 %ID g^−1
ex vivo uptake muscles (LNCaP (PSMA+) xenografts [1]; [7]): 0.5±0.2 %ID g^−1
ex vivo uptake pancreas (LNCaP (PSMA+) xenografts [1]; [7]): 0.8±0.7 %ID g^−1
ex vivo uptake plasma (LNCaP (PSMA+) xenografts [1]; [7]): 0.9±5.2 %ID g^−1
ex vivo uptake salivary glands (LNCaP (PSMA+) xenografts [1]; [7]): 0.5±0.3 %ID g^−1
ex vivo uptake small intestine (LNCaP (PSMA+) xenografts [1]; [7]): 1.6±2.1 %ID g^−1
ex vivo uptake spleen (LNCaP (PSMA+) xenografts [1]; [7]): 5.8±3.4 %ID g^−1
ex vivo uptake stomach (LNCaP (PSMA+) xenografts [1]; [7]): 0.6±0.2 %ID g^−1
ex vivo uptake tumor (LNCaP (PSMA+) xenografts [1]; [7]): 11.8±4.2 %ID g^−1 and 11.7±4.2 %ID g^−1
ex vivo uptake urine (LNCaP (PSMA+) xenografts [1]; [7]): 314±420 %ID g^−1
ex vivo uptake whole blood (LNCaP (PSMA+) xenografts [1]; [7]): 1.6±1.3 %ID g^−1
ex vivo uptake bone (PC3 (PSMA-) xenografts [2]): 0.5±0.2 %ID g^−1
ex vivo uptake brain (PC3 (PSMA-) xenografts [2]): 0.2±0.1 %ID g^−1
ex vivo uptake heart (PC3 (PSMA-) xenografts [2]): 1.0±0.6 %ID g^−1
ex vivo uptake kidney (PC3 (PSMA-) xenografts [2]): 39.8±28.8 %ID g^−1
ex vivo uptake large intestine (PC3 (PSMA-) xenografts [2]): 1.4±0.5 %ID g^−1
ex vivo uptake liver (PC3 (PSMA-) xenografts [2]): 9.4±2.9 %ID g^−1
ex vivo uptake lungs (PC3 (PSMA-) xenografts [2]): 2.1±1.1 %ID g^−1
ex vivo uptake muscles (PC3 (PSMA-) xenografts [2]): 0.6±0.3 %ID g^−1
ex vivo uptake pancreas (PC3 (PSMA-) xenografts [2]): 0.8±0.3 %ID g^−1
ex vivo uptake plasma (PC3 (PSMA-) xenografts [2]): 6.0±3.5 %ID g^−1
ex vivo uptake salivary glands (PC3 (PSMA-) xenografts [2]): 1.1±0.6 %ID g^−1
ex vivo uptake small intestine (PC3 (PSMA-) xenografts [2]): 1.3±0.6 %ID g^−1
ex vivo uptake spleen (PC3 (PSMA-) xenografts [2]): 3.1±1.4 %ID g^−1
ex vivo uptake stomach (PC3 (PSMA-) xenografts [2]): 1.2±0.6 %ID g^−1
ex vivo uptake tumor (PC3 (PSMA-) xenografts [2]): 3.0±1.8 %ID g^−1 and 3.0±1.7 %ID g^−1
ex vivo uptake urine (PC3 (PSMA-) xenografts [2]): 184±260 %ID g^−1
ex vivo uptake whole blood (PC3 (PSMA-) xenografts [2]): 3.4±1.8 %ID g^−1
SUVmeanBW Bladder (LNCaP (PSMA+) xenografts [3]; LNCaP (PSMA+) xenograft): 10.2 ± 6.7
SUVmeanBW Brain (LNCaP (PSMA+) xenografts [3]; LNCaP (PSMA+) xenograft): 0.2 ± 0.1
SUVmeanBW Heart (LNCaP (PSMA+) xenografts [3]; LNCaP (PSMA+) xenograft): 0.4 ± 0.2
SUVmeanBW Kidney (LNCaP (PSMA+) xenografts [3]; LNCaP (PSMA+) xenograft): 4.4 ± 1.4
SUVmeanBW Liver (LNCaP (PSMA+) xenografts [3]; LNCaP (PSMA+) xenograft): 0.8 ± 0.2
SUVmeanBW Muscle (LNCaP (PSMA+) xenografts [3]; LNCaP (PSMA+) xenograft): 0.2 ± 0.1
SUVmeanBW Tumor (LNCaP (PSMA+) xenografts [3]; LNCaP (PSMA+) xenograft): 0.6 ± 0.4
SUVmeanBW Bladder (LNCaP (PSMA+) xenografts [3]; [8]): 20.7 ± 12.4
SUVmeanBW Brain (LNCaP (PSMA+) xenografts [3]; [8]): 0.1 ± 0.0
SUVmeanBW Heart (LNCaP (PSMA+) xenografts [3]; [8]): 0.4 ± 0.1
SUVmeanBW Kidney (LNCaP (PSMA+) xenografts [3]; [8]): 2.6 ± 1.7
SUVmeanBW Liver (LNCaP (PSMA+) xenografts [3]; [8]): 0.8 ± 0.4
SUVmeanBW Muscle (LNCaP (PSMA+) xenografts [3]; [8]): 0.2 ± 0.1
SUVmeanBW Tumor (LNCaP (PSMA+) xenografts [3]; [8]): 0.3 ± 0.1
SUVmeanBW Bladder (PC3 (PSMA-) xenografts [4]): 3.9 ± 0.4
SUVmeanBW Brain (PC3 (PSMA-) xenografts [4]): 0.2 ± 0.1
SUVmeanBW Heart (PC3 (PSMA-) xenografts [4]): 0.7 ± 0.2
SUVmeanBW Kidney (PC3 (PSMA-) xenografts [4]): 5.1 ± 1.9
SUVmeanBW Liver (PC3 (PSMA-) xenografts [4]): 1.5 ± 0.5
SUVmeanBW Muscle (PC3 (PSMA-) xenografts [4]): 0.3 ± 0.1
SUVmeanBW Tumor (PC3 (PSMA-) xenografts [4]): 0.4 ± 0.2
metabolites in plasma [5]: no
SMILES: O=C(O)CC[C@H](NC(=O)N[C@@H](CCCCNC(=O)c1ccc(-c2cn(CCOCCOCC[18F])nn2)cc1)C(=O)O)C(=O)O [[^18F]PSMA‐MIC01]
